Laboratory results: PubChem BioAssay AID1963868 (Molecular Pharmacology Branch, DTP, NCI, 2024)

Test system: KRAS PDC tumor spheroids (HUVEC+MSC), viability
Experiment: Anticancer human tumor 254851-301-R-J1-PDC patient-derived colon carcinoma cell line growth inhibition [KRAS2]
Conditions: for viability, T/C: stronger effect = lower value
Text: Multicellular complex tumor spheroid response to RAS pathway inhibitors in combination with a targeted agents in patient-derived cell lines with oncogenic KRAS variants from multiple cancer types
A high-throughput screen of multi-cell type tumor spheroids was designed to identify active combinations of targeted small molecules and KRAS pathway inhibitors. Complex spheroids include a stromal component modeled by human endothelial cells (HUVEC) and fibroblasts modeled by human mesenchymal stem cells (MSCs). The concentration ranges selected for each drug and investigational agent were based upon clinically achievable concentrations if the clinical Cmax of the agent was known.
Compounds. The drugs and investigational agents: BI-3406 (NSC825286), BAY-293 (NSC824723), batoprotafib (TNO155; NSC825523), sotorasib (AMG 510; NSC818433), MRTX1257 (NSC819558), elimusertib (BAY 1895344; NSC800525), molibresib (GSK525762; NSC774829), temuterkib (LY3214996; NSC803410), venetoclax (NSC766270), alisertib (NSC759677), olaparib (NSC753686), talazoparib (NSC767125), erdafitinib (NSC781556), ipatasertib (NSC767898), cabozantinib (NSC761068), nintedanib (NSC756659), abemaciclib (NSC768073), docetaxel (NSC628503), trametinib (NSC758246), and sapanisertib (NSC764658) were obtained from the National Cancer Institute (NCI) Developmental Therapeutics Program Chemical Repository. The FDA-approved anticancer drug set is available from the Developmental Therapeutics Program. […] The stock solutions were prepared in dimethyl sulfoxide (DMSO, Sigma-Aldrich, St. Louis, MO, cat. D2650) at 800-fold the tested concentration and stored at -70 degrees C prior to their use. All drugs and investigational agents were tested over a range starting from a high concentration at or near the clinical Cmax and decreasing in half-log increments. If the clinical Cmax for an agent had not been determined, the highest concentration tested was 10 microM.
Cell Culture. All cells were maintained in an incubator at 37 degrees C and 5% CO2 with 95% humidity. The PDC lines were cultured according to standard operating procedures established by the NCI PDMR (https://pdmr.cancer.gov/sops/default.htm). Briefly, all PDCs were thawed and cultured in Matrigel-coated flasks prepared with a working solution of 1X Ham's F-12 nutrient mix, without supplementation (Invitrogen, Waltham, MA, cat. 11765054), 100 U/mL penicillin-streptomycin (Invitrogen, cat. 15140122), and 2.5% Matrigel (Corning Inc., Corning, NY, cat. 354248) for the first three passages. All PDCs were cultured in complete DMEM/F-12 media containing advanced DMEM/F-12 (Invitrogen, cat. 12634028), 4.9% defined fetal bovine serum, heat inactivated (HyClone Laboratories Inc., Logan, UT, cat. SH30070.03HI), 389 ng/mL hydrocortisone (Sigma-Aldrich, cat. H4001), 9.7 ng/mL human EGF recombinant protein (Invitrogen, cat. PHG0313), 23.4 microg/mL adenine (Sigma-Aldrich, cat. A2786), 97.3 U/mL penicillin-streptomycin (Invitrogen, cat. 15140122), 1.9 mM L-glutamine (Invitrogen, cat. 25030081), and 9.7 microM Y-27632 dihydrochloride (Tocris Bioscience, Bristol, United Kingdom, cat. 1254). The PDCs were cultured in complete DMEM/F12 media without 9.7 microM Y-27632 dihydrochloride for at least two passages prior to the screen. The established cell line HOP-62 was cultured in RPMI 1640 medium, HEPES (Invitrogen, cat. 22400105) with 10% defined fetal bovine serum (HyClone Laboratories Inc., cat. SH30070.03) and 2 mM L-glutamine (Invitrogen, cat. 25030081). The pooled donor HUVEC were cultured in endothelial cell growth medium 2 (PromoCell, Heidelberg, Germany, cat. C-22011) and the hMSC were cultured in mesenchymal stem cell growth medium 2 (PromoCell, cat. C-28009). For all experiments, HUVEC and hMSC were used at passages </=5, while the malignant cell lines were used at passages </=15. […]

[1] = curve of first compound, second compound 0.1 µM
[2] = curve of first compound, second compound 0.316 µM
[3] = curve of first compound, second compound 1 µM
[4] = curve of first compound, second compound 3.16 µM
[5] = second compound 0.1 µM, first compound 0.01 µM
[6] = second compound 0.1 µM, first compound 0.0316 µM
[7] = second compound 0.1 µM, first compound 0.1 µM
[8] = second compound 0.1 µM, first compound 0.316 µM
[9] = second compound 0.1 µM, first compound 1 µM
[10] = second compound 0.1 µM, first compound 3.16 µM
[11] = second compound 0.316 µM, first compound 0.01 µM
[12] = second compound 0.316 µM, first compound 0.0316 µM
[13] = second compound 0.316 µM, first compound 0.1 µM
[14] = second compound 0.316 µM, first compound 0.316 µM
[15] = second compound 0.316 µM, first compound 1 µM
[16] = second compound 0.316 µM, first compound 3.16 µM
[17] = second compound 1 µM, first compound 0.01 µM
[18] = second compound 1 µM, first compound 0.0316 µM
[19] = second compound 1 µM, first compound 0.1 µM
[20] = second compound 1 µM, first compound 0.316 µM
[21] = second compound 1 µM, first compound 1 µM
[22] = second compound 1 µM, first compound 3.16 µM
[23] = second compound 3.16 µM, first compound 0.01 µM
[24] = second compound 3.16 µM, first compound 0.0316 µM
[25] = second compound 3.16 µM, first compound 0.1 µM
[26] = second compound 3.16 µM, first compound 0.316 µM
[27] = second compound 3.16 µM, first compound 1 µM
[28] = second compound 3.16 µM, first compound 3.16 µM
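Note: spheroids exposed to compounds for seven days before readout.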
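Throughout, for viability, T/C: 100% = DMSO vehicle control luminescence of the spheroids.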

Work on CC1COCCN1c1cc(-c2ccnn2C)c2ccnc(-c3ccn[nH]3)c2n1 (centres undefined) + C=CC(=O)N1CCN(c2nc(OCC3CCCN3C)nc3c2CCN(c2cccc4cccc(C)c24)C3)CC1CC#N yielded an IC50 (curve of first compound, second compound 0.0316 µM) of 0.207 µM, an IC50 [1] of 0.3 µM and an IC50 [2] of 0.187 µM. It also gave an IC50 [3] of 0.0826 µM, an IC50 [4] of 0.0238 µM and a viability, T/C (second compound 0.0316 µM, first compound 0.01 µM) of 122%. It also gave a viability, T/C (second compound 0.0316 µM, first compound 0.0316 µM) of 88.8%, a viability, T/C (second compound 0.0316 µM, first compound 0.1 µM) of 62.7% and a viability, T/C (second compound 0.0316 µM, first compound 0.316 µM) of 40.4%. The viability, T/C (second compound 0.0316 µM, first compound 1 µM) was 32.7%, the viability, T/C (second compound 0.0316 µM, first compound 3.16 µM) was 20.4% and the viability, T/C [5] was 101%. For the same compound, the viability, T/C [6] was 95.3%, the viability, T/C [7] was 64.8% and the viability, T/C [8] was 50.8%. For the same compound, the viability, T/C [9] was 34%, the viability, T/C [10] was 21.4% and the viability, T/C [11] was 105%. It also gave a viability, T/C [12] of 97.1%, a viability, T/C [13] of 58.8% and a viability, T/C [14] of 41.9%. The viability, T/C [15] was 32.3%, the viability, T/C [16] was 22.5% and the viability, T/C [17] was 59.4%. For the same compound, the viability, T/C [18] was 53%, the viability, T/C [19] was 48.8% and the viability, T/C [20] was 26.3%. The viability, T/C [21] was 26.5%, the viability, T/C [22] was 39.7% and the viability, T/C [23] was 57.6%. The viability, T/C [24] was 47.1%, the viability, T/C [25] was 32.8% and the viability, T/C [26] was 23.3%. The viability, T/C [27] was 18.8% and the viability, T/C [28] was 23.8%.
With CC(=O)Nc1cccc(-n2c(=O)n(C3CC3)c(=O)c3c(Nc4ccc(I)cc4F)n(C)c(=O)c(C)c32)c1 the viability, T/C (compound 0.0001 µM) was 105% [middle of 5 runs], the viability, T/C (compound 0.000316 µM) was 96.8% [middle of 5 runs] and the viability, T/C (compound 0.001 µM) was 91.9% [middle of 5 runs]. For the same compound, the viability, T/C (compound 0.00316 µM) was 75.8% [middle of 5 runs], the viability, T/C (compound 0.01 µM) was 26.8% [middle of 5 runs] and the viability, T/C (compound 0.0316 µM) was 3.1% [middle of 5 runs]. The IC50 (curve of compound) was 5.78 nM [middle of 5 runs].
With CCN1CCN(Cc2ccc(Nc3ncc(F)c(-c4cc(F)c5nc(C)n(C(C)C)c5c4)n3)nc2)CC1 the viability, T/C (compound 0.00316 µM) was 98.6% [middle of 5 runs], the viability, T/C (compound 0.01 µM) was 101% [middle of 5 runs] and the viability, T/C (compound 0.0316 µM) was 90.3% [middle of 5 runs]. For the same compound, the viability, T/C (compound 0.1 µM) was 83.7% [middle of 5 runs], the viability, T/C (compound 0.316 µM) was 69.6% [middle of 5 runs] and the viability, T/C (compound 1 µM) was 42% [middle of 5 runs].
With CNCc1ccccc1-c1csc(C(C)Nc2nc(C)nc3cc(OC)c(OC)cc23)c1 (centres undefined) the viability, T/C (compound 0.1 µM) was 95.8% [middle of 17 runs], the viability, T/C (compound 0.316 µM) was 99.9% [middle of 16 runs] and the viability, T/C (compound 10 µM) was 0.17% [middle of 15 runs]. The IC50 (compound alone, run of 07/12/2021) was 4.73 µM [middle of 6 runs], the IC50 (compound alone, run of 07/19/2021) was 4.58 µM [middle of 5 runs] and the IC50 (compound alone, run of 07/26/2021) was 2.42 µM [middle of 6 runs].
CC(=O)OC12COC1CC(O)C1(C)C(=O)C(O)C3=C(C)C(OC(=O)C(O)C(NC(=O)OC(C)(C)C)c4ccccc4)CC(O)(C(OC(=O)c4ccccc4)C21)C3(C)C (centres undefined) + COc1cc2nc(C)nc(NC(C)c3cc(N)cc(C(F)(F)F)c3)c2cc1OC1CCOC1 gave an IC50 [1] of 0.18 µM, an IC50 [2] of 0.143 µM and an IC50 [3] of 0.166 µM. It also gave an IC50 [4] of 0.0662 µM, an IC50 (curve of first compound, second compound 10 µM) of 0.0697 µM and a viability, T/C [5] of 95%. It also gave a viability, T/C [6] of 87%, a viability, T/C [7] of 62.2% and a viability, T/C [8] of 38.4%. The viability, T/C [9] was 27%, the viability, T/C [10] was 24.5% and the viability, T/C [11] was 96.1%. It also gave a viability, T/C [12] of 92.7%, a viability, T/C [13] of 56.4% and a viability, T/C [14] of 34.6%. It also gave a viability, T/C [15] of 24.7%, a viability, T/C [16] of 23.3% and a viability, T/C [17] of 82.2%. It also gave a viability, T/C [18] of 78.7%, a viability, T/C [19] of 62.1% and a viability, T/C [20] of 34.6%. It also gave a viability, T/C [21] of 26.4%, a viability, T/C [22] of 24.5% and a viability, T/C [23] of 71.8%. The viability, T/C [24] was 67%, the viability, T/C [25] was 40.3% and the viability, T/C [26] was 28.1%. It also gave a viability, T/C [27] of 24.9%, a viability, T/C [28] of 24.2% and a viability, T/C (second compound 10 µM, first compound 0.01 µM) of 72.4%. The viability, T/C (second compound 10 µM, first compound 0.0316 µM) was 68.9%, the viability, T/C (second compound 10 µM, first compound 0.1 µM) was 41.4% and the viability, T/C (second compound 10 µM, first compound 0.316 µM) was 25%. It also gave a viability, T/C (second compound 10 µM, first compound 1 µM) of 25.1% and a viability, T/C (second compound 10 µM, first compound 3.16 µM) of 24.4%.
